Patent US20050009776A1, “Method of treating atrial fibrillation or atrial flutter” (Aderis Pharmaceuticals, Inc., priority 2003, published 2005)
Marks after values point to notes of the source that are not given here.

Key:
[1] = tested on: A1 receptor / A3 receptor; test: Affinity for adenosine A1 receptor relative to A3 receptor; format: binding
Description: (§1) Therefore, DTI-0009 may be capable of terminating episodes of supraventricular arrythymias at doses that have little effect on normal heart rate or blood pressure.

AV nodal conduction = test: Slowing of AV nodal conduction versus heart rate reduction; format: in vivo; conditions: guinea pig
Description: as §1

[2] = tested on: atrioventricular (AV) node; test: Example 2: electrophysiologic effects on atrioventricular nodal function, 30-minute i.v. infusion; format: in vivo, human
Experimental: An open-label, sequential group, dose-escalation study was conducted in electrophysiology laboratories at 11 sites in the United States between October 2000 and August 2001. The study protocol was approved by the institutional review board at each site, and patients provided assent and written informed consent prior to enrollment. Male and female patients (18 to 80 years of age), scheduled to undergo an electrophysiological (EP) study for a known or suspected cardiac arrhythmia or a catheter ablation procedure to an area other than the atrioventricular (AV) node, were enrolled in the study. Study procedures were performed after the completion of the scheduled EP procedure and patients were to be in sinus rhythm at study baseline. Exclusion criteria included: greater than first degree AV block, previous ablation of the AV node or AV node slow pathway, presence of an AV Wenckebach cycle length (AV WBCL)≧500 msec, treatment with atropine during the scheduled EP procedure, systolic blood pressure <90 or >180 mmHg, significant hemodynamic instability, ventricular response rate (VRR)<50 bpm, consumption of caffeine-containing food or beverage within the previous 12 hours, treatment with dipyridamole or diltiazem within the respective 5 half lives or theophylline, aminophylline, treatment with a therapeutic adenosine antagonist within the previous 24 hours, heart transplant or myocardial infarction within 30 days, known hypersensitivity to adenosine, known human immunodeficiency virus infection, or clinically significant hematologic, neurologic, hepatic, or renal function impairment.
Each patient received 1 of 6 doses of DTI-0009 (0.25, 1.0, 2.5, 4.0, 10.0, or 25.0 μg/kg) diluted in normal saline or normal saline only (control). Study drug was administered as a 30-minute i.v. infusion at a rate of 1 mL/minute. Patients were enrolled in sequential dose groups, beginning with the lowest active dose group and continuing in increasing dose order; the final group received normal saline. The decision to proceed to the next highest dose group was based on the safety response in the previous dose group.
Electrophysiologic (EP), electrocardiogram (ECG), blood pressure measurements, and blood collection for clinical laboratory measurements were performed at baseline (−10 to 0 minutes), during treatment (between 20 and 30 minutes), and at 10 minutes post-treatment.
EP measurements included ventricular response rate (VRR) during fixed atrial pacing at 250 and 400 msec (VRR 250 and VRR 400), AV WBCL, the interval from atrium to His bundle (AH interval) during sinus rhythm and rapid fixed atrial pacing at 600 msec, AV node effective refractory period (AVNERP), and atrial effective refractory period (AERP). Ventricular response rate during sinus rhythm was derived from the sinus cycle length.
ECG measurements included PR interval, QRS complex duration, and QT interval. Efficacy was based on changes in EP and ECG parameters from baseline to the treatment period and to post treatment. Safety was based on the incidence of adverse events, blood pressure measurements, and clinical laboratory values.
Demographic and baseline information were summarized by dose group. Efficacy variables were summarized overall by dose group at baseline, during treatment, and at post-treatment; mean changes from baseline to treatment period and post-treatment were calculated. Treatment effects (the mean difference between change from baseline for DTI-0009 dose and change from baseline for normal saline) and confidence intervals (95% CI) were estimated from an analysis of covariance (ANCOVA) model with treatment as the main factor and baseline score as a covariate. Regression models were constructed to test for dose responses. Efficacy analyses included all patients who received at least 20 minutes of study drug infusion, had analyzable VRR 250 at baseline and during treatment, and were in sinus rhythm at baseline.

[3] = tested on: atrioventricular (AV) node; test: Example 3: Phase I dose escalation, effects on AV node function; format: in vivo, human
Experimental: This study for determining the effects of DTI-0009 on atrioventricular (AV) node function enrolled 63 patients (19 women and 44 men; mean age 54) who were scheduled for a procedure other than AV node or slow pathway ablation. All patients had no greater than a first degree AV block and AV node Wenckebach Cycle Length of less than 500 msec. […] The study was a Phase I, multi-center, open-label, sequential dose escalation using DTI-0009 (0.25 μg/kg, 1.0 μg/kg, 2.5 μg/kg, 4.0 μg/kg, 10.0 μg/kg, and 25.0 μg/kg) or normal saline. Electrophysiologic studies (EPS) were performed at baseline, during infusion (20-30 min) and 10 minutes after discontinuation of DTI-0009 administration.

CCNC(=O)[C@H]1O[C@@H](n2cnc3c(NC4CCCC4)ncnc32)[C@H](O)[C@@H]1O [DTI-0009, N^6-cyclopentyl-5′-(N-ethyl)carboxamidoadenosine]
affinity for the A1 receptor higher than for the A3 receptor [1]: 11 fold
potency at slowing AV nodal conduction versus reducing heart rate (AV nodal conduction; in vivo): three times more potent at slowing AV nodal conduction than at reducing heart rate
rate dependence of slowing AV nodal conduction (AV nodal conduction; rapid atrial pacing vs normal sinus rhythm): more potent at slowing AV nodal conduction during periods of rapid atrial pacing than during normal sinus rhythm
AERP Treatment Effect ([2]; 0.25 μg/kg, during treatment): -9.6 ms
AH interval 600 msec Pacing Treatment Effect ([2]; 0.25 μg/kg, during treatment): 4.85 ms
AH interval Sinus Rhythm Treatment Effect ([2]; 0.25 μg/kg, during treatment): -2.8 ms
AVNERP Treatment Effect ([2]; 0.25 μg/kg, during treatment): -7.03 ms
AERP Treatment Effect ([2]; 1.0 μg/kg, during treatment): -18.3 ms
AH interval 600 msec Pacing Treatment Effect ([2]; 1.0 μg/kg, during treatment): 2.6 ms
AH interval Sinus Rhythm Treatment Effect ([2]; 1.0 μg/kg, during treatment): -0.1 ms
AVNERP Treatment Effect ([2]; 1.0 μg/kg, during treatment): -1.0 ms
PR interval treatment effect ([2]; 1.0 μg/kg, during treatment, p=0.008): -42.2 ms
PR interval treatment effect ([2]; 1.0 μg/kg, post-treatment, p=0.023): -34.5 ms
AERP Treatment Effect ([2]; 2.5 μg/kg, during treatment): -7.3 ms
AH interval 600 msec Pacing Treatment Effect ([2]; 2.5 μg/kg, during treatment): 18.0 ms
AH interval Sinus Rhythm Treatment Effect ([2]; 2.5 μg/kg, during treatment): 7.1 ms
AVNERP Treatment Effect ([2]; 2.5 μg/kg, during treatment): 16.0 ms
AERP Treatment Effect ([2]; 4.0 μg/kg, during treatment): 0.6 ms
AH interval 600 msec Pacing Treatment Effect ([2]; 4.0 μg/kg, during treatment): 18.7 ms
AH interval Sinus Rhythm Treatment Effect ([2]; 4.0 μg/kg, during treatment): 7.2 ms
AVNERP Treatment Effect ([2]; 4.0 μg/kg, during treatment): 82.4 ms
VRR 250 treatment effect ([2]; 4.0 μg/kg, during treatment, CI −51.0, −8.4, p=0.008): −29.7 bpm
AERP Treatment Effect ([2]; 10.0 μg/kg, during treatment): −22.0* msec
AH interval 600 msec Pacing Treatment Effect ([2]; 10.0 μg/kg, during treatment): 57.9*** msec
AH interval Sinus Rhythm Treatment Effect ([2]; 10.0 μg/kg, during treatment): 21.1** msec
AVNERP Treatment Effect ([2]; 10.0 μg/kg, during treatment): 231.5*** msec
VRR 250 treatment effect ([2]; 10.0 μg/kg, during treatment, CI −68.3, −26.4, p=0.001): −47.4 bpm
PR interval treatment effect ([2]; 10.0 μg/kg, post-treatment, p=0.007): 42.9 ms
AERP Treatment Effect ([2]; 25.0 μg/kg, during treatment): 4.0 ms
AH interval 600 msec Pacing Treatment Effect ([2]; 25.0 μg/kg, during treatment): 64.8** msec
AH interval Sinus Rhythm Treatment Effect ([2]; 25.0 μg/kg, during treatment): 14.2 ms
AVNERP Treatment Effect ([2]; 25.0 μg/kg, during treatment): 198.3* msec
VRR 250 treatment effect ([2]; 25.0 μg/kg, during treatment, CI −85.7, −18.5, p=0.004): −52.1 bpm
VRR 250 treatment effect at lower doses ([2]; 0.25, 1.0, and 2.5 μg/kg): no statistically significant treatment effect
QRS duration or QT interval ([2]; during the study): no statistically significant changes
AV WBCL treatment effect ([2]; during treatment, 10.0 and 25.0 μg/kg (p=0.001, p=0.035)): statistically significant treatment effects (increases from baseline)
AV WBCL treatment effect ([2]; post-treatment, 4.0, 10.0 and 25.0 μg/kg (p=0.013, p=0.001, p=0.001)): statistically significant treatment effects (increases from baseline)
AERP Change from Baseline ([3]; 4.0 μg/kg (n = 9), ns): +10 msec (ns)
AH Interval Change from Baseline ([3]; 4.0 μg/kg (n = 9), ns): +9 msec (ns)
AVNERP Change from Baseline ([3]; 4.0 μg/kg (n = 9), ns): +73 msec (ns)
Wenkebach Cycle Length Change from Baseline ([3]; 4.0 μg/kg (n = 9), ns): +60 msec (ns)
HR at 250 msec pacing Change from Baseline ([3]; 4.0 μg/kg (n = 9), p = 0.008): −49 bpm
AVNERP Change from Baseline ([3]; 10.0 μg/kg (n = 8), p = 0.001): +248 msec
HR at 250 msec pacing Change from Baseline ([3]; 10.0 μg/kg (n = 8), p = 0.001): −51 bpm
Wenkebach Cycle Length Change from Baseline ([3]; 10.0 μg/kg (n = 8), p = 0.001): +198 msec
AH Interval Change from Baseline ([3]; 10.0 μg/kg (n = 8), p = 0.004): +24 msec
AERP Change from Baseline ([3]; 10.0 μg/kg (n = 8), p = 0.035): -14 ms
complete heart block ([3]; 10.0 μg/kg dose): occurred in one patient
AERP Change from Baseline ([3]; 25.0 μg/kg (n = 2), ns): +10 msec (ns)
AH Interval Change from Baseline ([3]; 25.0 μg/kg (n = 2), ns): +14 msec (ns)
HR at 250 msec pacing Change from Baseline ([3]; 25.0 μg/kg (n = 2), p = 0.004): −45 bpm
AVNERP Change from Baseline ([3]; 25.0 μg/kg (n = 2), p = 0.013): +185 msec
Wenkebach Cycle Length Change from Baseline ([3]; 25.0 μg/kg (n = 2), p = 0.035): +140 msec
transient, severe, non-ischemic chest pain reported as serious adverse events ([3]; 25.0 μg/kg, three patients dosed): two of these patients
effects on AV node variables at low doses ([3]; doses up to 2.5 μg/kg): negligible effects
tolerability ([3]; up to a dose of 10.0 μg/kg): well tolerated
